Reference: patent EP0831811B1, “CARBAZOLES FOR TREATING MICROBIAL INFECTIONS” (priority 1995, dated 1996)
Where a name gives a salt, the structure may show the parent alone.

How the values were obtained:
[1] = Toxicity seen in the rat PCP treatment study; set-up: species or system Sprague-Dawley rats; settings: in vivo, iv, 5 mg/kg
Experimental: (§1) The activity of the compounds against P. carinii was carried out according to an established method. See Tidwell, R. R., et al., J. Med. Chem. 33, 1252-1257 (1990); Jones, S. K., et al., Antimicrob. Agents Chemother. 34, 1026-1030 (1990); Tidwell, R.R., et al., Antimicrob. Agents Chemother. 37, 1713-1716 (1993). The induction and treatment of P. carinii pneumonia (PCP) was carried out with only minor alterations to published methods. See Frenkel, J.K. et al., Lab. Invest. 15, 1559 (1966); Hughes, W.T. et al., Antimicrob. Agents Chemother. 5, 289 (1974). Briefly, male Sprague-Dawley rats (barrier raised, not certified virus-free) weighing 150-200g each, were obtained (Hilltop Laboratories, Scottsdale, PA). Immediately upon arrival, the animals were caged individually and begun on a low protein (8%) diet and on drinking water containing tetracycline (0.5 mg/mL) and dexamethasone ([…]). This regimen was continued for eight weeks. At the beginning of the seventh week, animals were divided into groups of 8 or more, and the test compounds were administered for 14 days by single daily IV injection. Generally, the daily dose was 5 mg/kg of body weight and was dissolved in 0.4 mL of saline. Saline- and pentamidine-treated groups were included as controls.

Pneumocystis carinii = assay: Rat model of P. carinii pneumonia (PCP): cysts per gram of lung; type: in vivo; settings: for response vs control in vivo at 5 mg/kg: immunosuppressed rats, dose 5.0 mg/kg iv once daily for 14 days, means ± SEM, percent of saline-treated controls; for anti-P. carinii activity (in words): rat model, carbazoles tested at one half the dose of pentamidine
Experimental: as §1
Animals were sacrificed at the end of the eighth week by chloroform inhalation. The right lung was inflated in situ with 10% formalin and fixed for histological examination. The lung tissue was sectioned in the long axis and exposed to the GMS stain, which selectively identified the walls of the P. carinii cysts.
The left lung was weighed, ground through a No. 60 wire mesh screen, and suspended 1:10 (wt/vol) in 10 mM β-mercaptoethanol-Hanks' balanced salts solution (HBSS) without cations. Slides were prepared by spotting 5 µL of lung homogenate diluted 1:10 in HBSS with β-mercaptoethanol and allowed to air dry. The slides were stained with cresyl violet, and the cysts were counted by a blinded protocol. The number of cysts per gram of original lung tissue was calculated, and the groups were reported as the percentages of saline-treated controls.
Anti-P. carinii activity is measured by the reduction in the number of cysts per gram of lung tissue for treated animals as compared to untreated controls. The anti-P. carinii value for each compound is expressed as the percent of cysts in the treatment group as compared to the control group. […] It should be noted that compound 3 was tested at one half the dose of pentamidine as were all of the carbazoles.

Calf thymus DNA = assay: DNA binding by thermal melting (ΔTm); settings: for DNA binding calf thymus ΔTm(°C): absorbance at 259 nm, heated at 18°C/h, average of at least two determinations
Experimental: DNA binding potency was determined for each of the compounds because previous work had determined that the binding of dicationic molecules to DNA is a prerequisite for their antimicrobial activity. See e.g., Tidwell, R.R., et al., Antimicrob. Agents Chemother. 37, 1713-1716 (1993); Bell, C. A., et al., Antimicrob. Agents Chemother. 35, 1099-1107 (1991). The DNA binding of the compounds was determined by the change in melting of the DNA bound to the experimental compounds. The method is well documented and is a considered a standard method for determining DNA binding strength. See Cory, M.. et al., J. Med. Chem. 25, 431-438 (1992). In brief, a UV-visible light spectrophotometer with a cuvette changer was interfaced to a microcomputer that recorded the cuvette temperature and DNA-absorbance data at 259 nm as the sample was heated at a rate of 18°C/h. Calf thymus DNA was used at an initial absorbance of 0.3A259. The midpoint of each denaturation curve was determined after graphic selection on the computer of the starting and ending absorbance temperature for each curve of each experiment. DNA or DNA bound to experimental compound was run in each experiment and the ΔTms were determined from the polynucleotide Tm for that experiment. […] The data reported in Table 1 represent the average of at least two determinations of ΔTm.

Cryptosporidium parvum = assay: Neonatal mouse model of Cryptosporidium parvum infection: oocysts in the bowel; type: in vivo; settings: for Efficacy: C. parvum
Experimental: Besides the potency shown by this compound against P. carinii infection in the rat model, the compound was also effective in a neonatal mouse model of Cryptosporidium parvum infection. This model has been described in detail in previous reports. See Blagburn, B. L.; et al., Antimicrob. Agents Chemother. 35, 1520-1523 (1991). The compound's activity against C. parvum is measured by a reduction in the number of oocysts detected in the bowel of treated mice compared to untreated controls.

Cryptococcus neoformans = assay: Broth dilution antifungal susceptibility test (NCCLS M27-P), MIC and MFC; type: cell-based
Experimental: (§2) Activity of the compound was assessed using a standard in vitro fungal cell growth inhibition assay (the broth dilution antifungal susceptibility testing of yeast, proposed standard document M27-P, validated by the National Committee for Clinical Laboratory Standards, 1992). Briefly, this broth dilution procedure uses PMI media, and an inoculum of […] with media alone. After the minimal inhibitor concentration was determined by the above procedure, tubes with no visible growth were subcultured to determine the minimum fungicidal concentration by using criteria of less than 0.01% survival of original inoculum. Two organisms were tested: (1) H99, a clinical isolate of C. neoformans which is fully susceptible to azoles and polyenes in vitro and in vivo; and (2) A39, a clinical isolate of C. albicans which is fully susceptible to azoles and polyenes.
(§3) The MFC's (minimum fungicidal concentration) for compound 9 against these two important AIDS-associated fungal infections are shown in Table 2.

C. albicans = assay: as above; type: cell-based
Experimental: as §2, §3

[2] = Pneumocystis carinii, 336 h, read-out: in vivo activity against PCP cysts/g lung % control
[3] = in vitro fungal cell growth inhibition

SMILES	toxicity [1]	response vs control in vivo at 5 mg/kg (Pneumocystis carinii; [2]) [%]	DNA binding calf thymus ΔTm(°C) (Calf thymus DNA)	also measured
Cl.Cl.N=C(N)c1ccc2[nH]c3ccc(C(=N)N)cc3c2c1 [Compound 1, 3,6-diamidinocarbazole dihydrochloride]	0	0.8 ± 0.36	17.2	–
CC(C)N=C(N)c1ccc2[nH]c3ccc(C(N)=NC(C)C)cc3c2c1 [Compound 2, 3,6-diisopropylamidinocarbazole dihydrochloride]	0	0.11 ± 0.08	–	–
c1cc2[nH]c3ccc(C4=NCCN4)cc3c2cc1C1=NCCN1 [Compound 3, 3,6-bis(2-imidazolinyl)carbazole dihydrochloride]	0	0.06 ± 0.02	–	–
Cn1c2ccc(C3=NCCN3)cc2c2cc(C3=NCCN3)ccc21 [Compound 4, 3,6-bis(2-imidazolinyl)-9-methylcarbazole dihydrochloride]	–	0.17 ± 0.11	–	–
c1cc2c(cc1C1=NCCN1)c1cc(C3=NCCN3)ccc1n2CC1CCCCC1 [Compound 5, 9-cyclohexylmethyl-3,6-bis(2-imidazolinyl)carbazole dihydrochloride]	0	35.8 ± 4.87	–	–
Cn1c2ccc(C3=NCCCN3)cc2c2cc(C3=NCCCN3)ccc21 [Compound 6, 3,6-bis[2-(1,4,5,6-tetrahydropyrimidinyl)]-9-methylcarbazole dihydrochloride]	–	0.14 ± 0.05	13.6	–
c1cc2c(cc1C1=NCCCN1)c1cc(C3=NCCCN3)ccc1n2CC1CCCCC1 [Compound 7, 3,6-bis[2-(1,4,5,6-tetrahydropyrimidinyl)]-9-cyclohexylmethylcarbazole dihydrochloride]	–	4.1 ± 1.59	7.3	anti-P. carinii activity (in words) (Pneumocystis carinii): failed to exhibit anti-P. carinii significantly more potent than the control drug, pentamidine
c1cc2[nH]c(-c3ccc4[nH]c5ccc(-c6nc7cc(C8=NCCN8)ccc7[nH]6)cc5c4c3)nc2cc1C1=NCCN1 [Compound 8, 3,6-bis[2-imidazolinyl)-2-benzimidazoyl]carbazole tetrahydrochloride]	0	61.9 ± 14.5	22.2	anti-P. carinii activity (in words) (Pneumocystis carinii): failed to exhibit anti-P. carinii significantly more potent than the control drug, pentamidine; anti-P. carinii activity (in words) (Pneumocystis carinii; listed as compound 8): only moderate activity; DNA binding (in words) (Calf thymus DNA): highly potent as a DNA binding agent
Cl.Cl.N=C(N)c1ccc2c(c1)[nH]c1cc(C(=N)N)ccc12 [Compound 9, 2,7-diamidinocarbazole dihydrochloride]	0	0.17 ± 0.06	19.0	activity against C. parvum (in words) (Cryptosporidium parvum): effective; Efficacy (Cryptosporidium parvum; 14.6 µmol/kg oral): 6.1 % control; Efficacy (Cryptosporidium parvum; 29.3 µmol/kg oral): 0.30% control; Efficacy (Cryptosporidium parvum; 58.6 µmol/kg oral): 0.89 % control; MIC (Cryptococcus neoformans; Cryptococcus neoformans, in vitro, H99 clinical isolate of C. neoformans): 6.25 µg/mL; MFC (Cryptococcus neoformans; Cryptococcus neoformans, in vitro, H99 clinical isolate of C. neoformans, less than 0.01% survival of original inoculum): 50 µg/mL; activity in vitro (in words) (Cryptococcus neoformans; [3]): highly active; MIC (C. albicans; Candida albicans, in vitro, A39 clinical isolate of C. albicans): 0.78 µg/mL; MFC (C. albicans; Candida albicans, in vitro, A39 clinical isolate of C. albicans, less than 0.01% survival of original inoculum): 1.56 µg/mL; activity in vitro (in words) (C. albicans; [3]): highly active
c1cc2c(cc1C1=NCCN1)[nH]c1cc(C3=NCCN3)ccc12 [Compound 10, 2,7-bis(2-imidazolinyl)carbazole dihydrochloride]	0	0.5 ± 0.33	–	–
N=C(N)c1ccc(OCCCCCOc2ccc(C(=N)N)cc2)cc1 [pentamidine, reference compound]	–	–	10.7	response vs control in vivo at 10 mg/kg (Pneumocystis carinii; Pneumocystis carinii, iv, 336 h, read-out: in vivo activity against PCP cysts/g lung % control): 1.84 ± 0.82%
